Measurements as given in paper PMC10477886, “Adamantaniline Derivatives Target ATP5B to Inhibit Translation of Hypoxia Inducible Factor‐1α” (Advanced Science, 2023).

Assays:
[1] = plasma concentration and pharmacokinetics after intraperitoneal administration in ICR mice; format: in vivo; conditions: for concentration in the plasma (rough screen): intraperitoneal 50 mg kg^−1, two mice per compound, five times
Procedure: (§1) First, we roughly screened the concentrations in the plasma of seven selected compounds (1‐3n, 1‐3au, 1‐4a, 1‐4k, 1‐4l, 1‐4m, and 1‐4p) at indicated times after intraperitoneal administration in the Institute of Cancer Research (ICR) mice at a dose of 50 mg kg^−1 with two mice per compound, the blood at five different times was collected and the plasma concentration was analyzed finally. […] Besides, we examined the toxicity of HI‐104 in ICR mice by administering for 1 week at a dose of 100 mg kg^−1 by intraperitoneal injection.

[2] = toxicity in ICR mice, administering for 1 week; format: in vivo; conditions: 100 mg kg^−1 intraperitoneal for 1 week
Procedure: as §1

[3] = tested on: HIF‐1α transcriptional activity; experiment: dual‐luciferase assay (HRE‐Firefly Luciferase / renilla) of HIF‐1α transcriptional activity in HEK293T cells; format: cell-based, human; conditions: for inhibition at 10 µM / IC50: Homo sapiens, HEK-293T, mean ± s.d. (n = 3); for inhibition at 10 µM: incubation 24 h, read-out: Inhibition rate [%] @ 10 µM; for IC50: HEK293T dual‐luciferase
Description: To screen HIF‐1α inhibitors in a robust cell‐based assay, we optimized the dual‐luciferase assay with pLenti‐HIF‐1αP2A (P402A and P564A) instead of pLenti‐HIF‐1α in order to ensure the expression of HIF‐1α under normoxia condition. In the cell‐based assay, HEK293T cells were co‐transfected with pLenti‐HIF‐1αP2A, renilla, and hypoxia‐responsive element (HRE)‐Firefly Luciferase (Figure S1, Supporting Information). […] Three compounds were selected as the positive controls including two inhibitors (PX‐478 2HCl and BAY 87‐2243) and an activator (BAY 85‐3934) in the screening assay.
HEK293T cells were stably transfected with reporter plasmids pGMLV‐HRE‐LUC‐puromycin, pMSCV‐renilla‐hygromycin, and pLenti‐HIF‐1αP2A‐neomycin. Stable cell line constructed above, 293‐HIF‐1αP2A‐HRE‐Fluc‐Rluc, were seeded in 384‐well plates and cultured in DMEM with 10% FBS. The following day, the cells were pretreated with indicated chemical compounds from the National Compound Library of the Shanghai Institute of Materia Medica, Chinese Academy of Sciences by Mosquito HTS. The plate was then placed in an incubator chamber and incubated at 37 °C for 24 h. The ratio of firefly/renilla luciferase activity was determined by using the Envision (PerkinElmer).
Stable cell line 293‐HRE‐Fluc‐Rluc expressed luciferase and renilla or HEK293T cells transfected with indicated plasmids (pGL3‐HRE‐luciferase and pSV40‐renilla) were seeded in a 96‐well plate. The cells were co‐incubated with indicated compounds for 24 h and luciferase activities were detected in Microplate Reader (BioTek SYNEGRY H1) using the Dual Luciferase Reporter Assay System Kit (Promega, USA E1910) according to the manufacturer's instruction. The relative Luc activity was normalized by renilla activity. Three independent experiments were performed, and the calculated means and SDs are presented.

MHCC97‐L xenograft tumor = experiment: MHCC97‐L xenograft model in nude mice (wildtype and ATP5A/ATP5B knock‐out); format: in vivo
Description: HIF‐1α overexpression is implicated in human hepatocellular carcinoma (HCC).^[ [57] ^] To investigate the biological significance of HI‐104 in the progression of HCC by targeting ATP5A or ATP5B, we performed xenograft models in nude mice with ATP5A or ATP5B stable knock‐out MHCC97‐L cell lines (Figure 6A). The cells were inoculated to 6–8 weeks old nude mice under the armpits, and daily intraperitoneal injection of HI‐104 was started after the tumor volume reached 100 mm^3. Tumor volume and body weight were monitored during the treatment.
MHCC97L wildtype and ATP5A or ATP5B stable knock‐out cells (3 × 10^6) were implanted subcutaneously into the right flanks of 6‐week‐old female BALB/c nude mice. After most of the tumors had reached a threshold size of 100 mm^3, the mice received an intraperitoneal injection of vehicle alone (10% DMSO, 10% Cremophor, and 80% saline, pH 7–8) or HI‐104 over 10 days. The tumor volume was monitored every other day with calipers. After 10 days of treatment or if the mice met humane endpoint criteria, the mice were sacrificed, and tumors were dissected, photographed, and weighed. Tumor tissues were either collected and fixed in 10% neutral‐buffered formalin or snap‐frozen in liquid N2 and stored at −80 °C for subsequent analyses. All animals used in this study were handled in accordance with federal and institutional guidelines under a protocol approved by the Institutional Animal Care and Use Committee at Shanghai Jiao Tong University School of Medicine.

HIF‐1α protein level = experiment: western blot of HIF‐1α protein level in cells; format: cell-based, human; conditions: hypoxia
Procedure: Cells were lysed with RIPA lysis (Epizyme, PC101) containing 1% cocktail protease inhibitors (MCE), and protein concentrations were determined by BCA kits (Beyotime, P0012S). Samples were denatured using DS‐PAGE Protein Staining and Loading Buffer (5×) (Beyotime, P0015L) followed by boiling for 10 min at 98 °C then the proteins were fractionated by 10% or 12.5% SDS‐PAGE and transferred to Cellulose Nitrate Membrane Filters (WHATMAN). After blocking in 5% non‐fat milk for 2 h at room temperature, the membrane was incubated overnight with specific antibodies at 4 °C, followed by horseradish peroxidase (HRP)‐linked anti‐mouse or anti‐rabbit secondary antibody (Cell Signaling Technology). Finally, An Immobilon Western Chemiluminescent HRP Substrate Kit (Merck Millipore) was used for protein bands detection. In addition, blots were probed with anti‐β‐actin (Merck, Darmstadt, Germany) antibody as the internal control.

F1‐ATP synthase complex = F1‐ATP synthase complex (Sus scrofa, UniProt K7GLT8+P80021); experiment: fluorescence polarization binding assay; parameters: species or system pig
Description: ATP5A and ATP5B are important components of FOF1–ATP synthase, also known as ATP synthase, which is a protein complex that catalyzes ATP synthesis by utilizing energy from the translocation of protons across biological membranes.^[ [40] ^] FOF1‐ATP synthase consists of two domains: the membrane‐spanning domain, FO, which acts as a proton channel, and the soluble catalytic domain, F1, which synthesizes ATP and is composed of nine subunits(α 3 β 3 γδɛ).^[ [41], [42], [43], [44] ^] […] To verify whether HI‐101 targeted ATP5A and ATP5B, we knocked down the subunits of F1 domains separately by shRNA.
F1‐ATPase at indicated concentrations was incubated with HI‐103 (4 nM), bodipy‐1 was as a negative molecule, conduct the experiment after incubating in 96‐well microplates of black polystyrene for 10 min. The FP results were analyzed with GraphPad Prism 9.0.

F1‐ATP synthase complex, sequence (K7GLT8 entry or part of it): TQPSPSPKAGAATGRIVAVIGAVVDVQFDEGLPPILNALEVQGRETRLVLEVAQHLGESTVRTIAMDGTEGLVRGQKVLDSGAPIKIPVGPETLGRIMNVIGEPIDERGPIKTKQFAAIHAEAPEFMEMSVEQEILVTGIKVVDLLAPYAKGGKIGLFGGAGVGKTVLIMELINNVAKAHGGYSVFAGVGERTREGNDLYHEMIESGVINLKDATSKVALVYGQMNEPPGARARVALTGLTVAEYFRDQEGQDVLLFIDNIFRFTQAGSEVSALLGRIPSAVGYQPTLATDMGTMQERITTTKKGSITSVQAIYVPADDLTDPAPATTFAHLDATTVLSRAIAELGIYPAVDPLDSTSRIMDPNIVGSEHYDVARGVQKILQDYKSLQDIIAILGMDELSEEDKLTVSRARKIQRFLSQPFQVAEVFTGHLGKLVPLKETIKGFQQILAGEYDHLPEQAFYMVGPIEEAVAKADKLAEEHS
F1‐ATP synthase complex, sequence (A0A286ZYL7 entry or part of it, further chain): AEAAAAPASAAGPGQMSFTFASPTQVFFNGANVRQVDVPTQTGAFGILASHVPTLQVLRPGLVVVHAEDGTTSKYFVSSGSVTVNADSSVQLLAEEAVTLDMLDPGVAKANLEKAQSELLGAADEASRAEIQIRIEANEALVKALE
F1‐ATP synthase complex, sequence (A5GFX4 entry or part of it, further chain): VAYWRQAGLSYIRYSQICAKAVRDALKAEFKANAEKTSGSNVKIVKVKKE
F1‐ATP synthase complex, sequence (P80021 44-553): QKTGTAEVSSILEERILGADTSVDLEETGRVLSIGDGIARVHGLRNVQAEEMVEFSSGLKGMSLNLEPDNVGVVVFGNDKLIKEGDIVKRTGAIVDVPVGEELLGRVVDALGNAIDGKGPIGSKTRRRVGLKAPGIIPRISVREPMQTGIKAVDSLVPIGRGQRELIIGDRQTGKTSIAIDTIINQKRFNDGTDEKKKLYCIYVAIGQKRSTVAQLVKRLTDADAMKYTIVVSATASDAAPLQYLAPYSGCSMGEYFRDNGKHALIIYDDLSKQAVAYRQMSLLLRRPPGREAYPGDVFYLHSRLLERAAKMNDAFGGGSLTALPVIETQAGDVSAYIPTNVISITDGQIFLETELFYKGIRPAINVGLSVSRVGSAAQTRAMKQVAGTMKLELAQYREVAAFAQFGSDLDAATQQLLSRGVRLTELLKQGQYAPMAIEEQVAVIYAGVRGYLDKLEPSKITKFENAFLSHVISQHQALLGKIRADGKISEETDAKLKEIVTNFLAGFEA

Structure (SMILES) | concentration in the plasma (rough screen) [1] | inhibition at 10 µM ([3]; HEK293T) [%] | IC50 [3] [nM] | also measured
C[N+](C)(C)CCCC(=O)Nc1ccc(C(=O)Nc2ccc(C34CC5CC(CC(C5)C3)C4)cc2)cc1 [1‐3au, 4‐((4‐((4‐((3r,5r,7r)‐Adamantan‐1‐yl)Phenyl)Carbamoyl)Phenyl)Amino)‐N,N,N‐Trimethyl‐4‐Oxobutan‐1‐Aminium] | high concentration in the plasma | 89.9 ± 1.6 | 1300 ± 300 | AUC ([1]; mouse, ip, intraperitoneal, plasma, read-out: area under the curve (AUC0‐24 h)): 861 µg·h/mL; Cmax ([1]; mouse, ip, intraperitoneal, plasma, read-out: maximum concentration (Cmax)): 91.7 µg/mL; half-life ([1]; mouse, plasma, ip, intraperitoneal): 340 min; toxicity (body weight and mental status) [2]: not overtly toxic; tumor growth (MHCC97‐L xenograft tumor; ATP5B KO MHCC97‐L xenograft models): almost had no effect; tumor volume and weight (MHCC97‐L xenograft tumor; wildtype MHCC97‐L xenograft, daily intraperitoneal injection): reduced the tumor volume and weight; body weight (MHCC97‐L xenograft tumor; wildtype MHCC97‐L xenograft, nude mice): tolerant weight loss
O=C(Nc1ccc(C23CC4CC(CC(C4)C2)C3)cc1)c1c[nH]cn1 [1‐4k, N‐(4‐((3r,5r,7r)‐Adamantan‐1‐yl)Phenyl)−1H‐Imidazole‐4‐Carboxamide] | barely detectable in the plasma | 99.7 ± 0.2 | 86 ± 3 | 
CC[C@H]1/C=C/C=C/C[C@@H](C)[C@H](O)[C@@](C)(O)C(=O)[C@@H](C)[C@H](O)[C@@H](C)C(=O)[C@@H](C)[C@H](O)[C@@H](C)/C=C/C(=O)O[C@@H]2[C@H](C)[C@H](CC1)O[C@]1(CC[C@H](C)[C@H](C[C@@H](C)O)O1)[C@H]2C [Oligomycin, reference compound] |  |  |  | HIF‐1α protein level (HIF‐1α protein level): decreased HIF‐1α transcriptional activity and protein level in a dose‐dependent manner; HIF‐1α transcriptional activity (relative luciferase activity), in words ([3]; HEK293T, hypoxia): decreased HIF‐1α transcriptional activity and protein level in a dose‐dependent manner
Cn1cncc1C(=O)Nc1ccc(C23CC4CC(CC(C4)C2)C3)cc1 [1‐4l, N‐(4‐((3r,5r,7r)‐Adamantan‐1‐yl)Phenyl)−1‐Methyl‐1H‐Imidazole‐5‐Carboxamide] | barely detectable in the plasma | 97.8 ± 0.6 | 83 ± 3 | 
O=C(Nc1ccc(C23CC4CC(CC(C4)C2)C3)cc1)c1cccc(O)c1 [1‐3n, N‐(4‐((3r,5r,7r)‐Adamantan‐1‐yl)Phenyl)−3‐Hydroxybenzamide] | barely detectable in the plasma | 99.7 ± 0.1 | 26 ± 5 | 
CC1=CC(C)=[N+]2C1=C(CCCC(=O)Nc1ccc(C(=O)Nc3ccc(C45CC6CC(CC(C6)C4)C5)cc3)cc1)c1c(C)cc(C)n1[B-]2(F)F [1‐3z, N‐(4‐((3r,5r,7r)‐Adamantan‐1‐yl)Phenyl)−4‐(4‐(5,5‐Difluoro‐1,3,7,9‐Tetramethyl‐5H‐4l4,5l4‐Dipyrrolo[1,2‐c:2′,1′‐f][1,3,2]Diazaborinin‐10‐yl)Butanamido)Benzamide] |  | 80.3 ± 1.2 | 2100 ± 500 | Kd (F1‐ATP synthase complex): 2.6 nM
